In ChEMBL document CHEMBL6087408, “Discovery of peptidomimetic spiropyrrolidine derivatives as novel 3CLpro inhibitors against SARS-CoV -2” (Eur J Med Chem, 2025):

Experiments:
[1] = Metabolic stability in human liver microsomes assessed as hepatic clearance at 1 uM preincubated for 5 mins followed by NADPH addition measured upto 45 mins by LC-MS/MS analysis; assay type: ADME, Microsome; details: time < 50 min
[2] = Metabolic stability in mouse liver microsomes assessed as half life at 1 uM preincubated for 5 mins followed by NADPH addition measured upto 45 mins by LC-MS/MS analysis; assay type: ADME, Microsome; details: time < 50 min
[3] = test system: SARS-CoV-2; assay: Antiviral activity against SARS-CoV-2 infected in human Huh-7 cells transfected with viral replicon incubated for 1 day; assay type: functional, organism-based; details: Severe acute respiratory syndrome coronavirus 2, Huh-7, 24 h; for EC90: time 1 day
[4] = Metabolic stability in human liver microsomes assessed as half life at 1 uM preincubated for 5 mins followed by NADPH addition measured upto 45 mins by LC-MS/MS analysis; assay type: ADME, Microsome; details: time < 50 min
[5] = Cytotoxicity against human Huh-7 cells assessed as cell viability by Cell Titer Glo assay; assay type: toxicity, cell-based
[6] = molecular target: Replicase polyprotein 1ab (Severe acute respiratory syndrome coronavirus 2, UniProt P0DTD1); assay: Inhibition of 6His-tagged SARS-CoV-2 3CLpro using Dabcyl-KNSTLQSGLRKE-Edans as substrate preincubated for 60 mins followed by substrate addition by FRET assay
[7] = Metabolic stability in mouse liver microsomes assessed as hepatic clearance at 1 uM preincubated for 5 mins followed by NADPH addition measured upto 45 mins by LC-MS/MS analysis; assay type: ADME, Microsome; details: time < 50 min
[8] = Half life in ICR mouse at 10 mg/kg, iv measured for 24 hrs by LC-MS/MS analysis; assay type: ADME, organism-based; details: in vivo
[9] = AUC (0 to infinity) in ICR mouse at 10 mg/kg, iv measured for 24 hrs by LC-MS/MS analysis; assay type: ADME, organism-based; details: in vivo
[10] = AUC (0 to t) in ICR mouse at 20 mg/kg, po measured for 24 hrs by LC-MS/MS analysis; assay type: ADME, organism-based; details: in vivo
[11] = Cmax in ICR mouse at 20 mg/kg, po measured for 24 hrs by LC-MS/MS analysis; assay type: ADME, organism-based; details: in vivo
[12] = AUC (0 to infinity) in ICR mouse at 20 mg/kg, po measured for 24 hrs by LC-MS/MS analysis; assay type: ADME, organism-based; details: in vivo
[13] = Half life in ICR mouse at 20 mg/kg, po measured for 24 hrs by LC-MS/MS analysis; assay type: ADME, organism-based; details: in vivo
[14] = AUC (0 to t) in ICR mouse at 10 mg/kg, iv measured for 24 hrs by LC-MS/MS analysis; assay type: ADME, organism-based; details: in vivo
[15] = Oral bioavailability in ICR mouse at 20 mg/kg measured for 24 hrs by LC-MS/MS analysis; assay type: ADME, organism-based; details: in vivo
[16] = molecular target: Procathepsin L (Homo sapiens, UniProt P07711); assay: Inhibition of CTSL (unknown origin) incubated for 2 hrs
Procathepsin L, sequence (P07711 whole entry): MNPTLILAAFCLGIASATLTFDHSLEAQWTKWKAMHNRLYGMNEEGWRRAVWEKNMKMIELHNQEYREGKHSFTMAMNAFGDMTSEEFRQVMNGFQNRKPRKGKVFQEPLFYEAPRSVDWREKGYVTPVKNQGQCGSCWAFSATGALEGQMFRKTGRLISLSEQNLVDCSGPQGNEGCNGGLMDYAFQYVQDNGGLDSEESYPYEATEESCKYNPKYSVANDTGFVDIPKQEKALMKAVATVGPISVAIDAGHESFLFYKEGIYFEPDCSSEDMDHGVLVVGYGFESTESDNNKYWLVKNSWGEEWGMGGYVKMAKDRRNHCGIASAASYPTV

[17] = molecular target: Cathepsin B (Homo sapiens, UniProt P07858); assay: Inhibition of CTSB (unknown origin) incubated for 2 hrs

## CC(C)(C)[C@H](NC(=O)C(F)(F)F)C(=O)N1C[C@H]2[C@@H]([C@H]1C(=O)N[C@H](C#N)C[C@@H]1CCNC1=O)C2(C)C
[1]
  CLhep predicted at 1 µM: 12.7 mL/min/kg
[2]
  half-life at 1 µM: 1.17 h
[3]
  EC90: 186 nM
[4]
  half-life at 1 µM: 0.91 h
[5]
  CC50: > 5000 nM

## N#C[C@@H]1C[C@@]2(CN1C(=O)[C@H](CS(=O)(=O)Cc1ccccc1)NC(=O)[C@@H](NC(=O)C(F)(F)F)C1CC1)C(=O)Nc1ccccc12
[6]
  IC50: 1300 nM

## CN(C(=O)[C@@H](NC(=O)C(F)(F)F)C1CC1)[C@@H](CSCc1ccccc1)C(=O)N1C[C@]2(C[C@H]1C#N)C(=O)Nc1ccccc12
[2]
  half-life at 1 µM: 0.0617 h
[7]
  CLhep predicted at 1 µM: 84.9 mL/min/kg
[6]
  IC50: 40 nM

## CN(C(=O)[C@@H](NC(=O)C(C)(C)F)C1CC1)[C@@H](CSCc1ccccc1)C(=O)N1C[C@]2(C[C@H]1C#N)C(=O)Nc1ccccc12
[2]
  half-life at 1 µM: 0.06 h
[7]
  CLhep predicted at 1 µM: 85.1 mL/min/kg
[6]
  IC50: 43 nM

## N#C[C@@H]1C[C@@]2(CN1C(=O)[C@@H](CSCc1ccc(F)cc1)NC(=O)[C@@H](NC(=O)C(F)(F)F)C1CC1)C(=O)Nc1ccccc12
[8]
  half-life: 0.47 h
[1]
  CLhep predicted at 1 µM: 8.8 mL/min/kg
[9]
  AUC(0-inf): 2130 ng·h/mL
[2]
  half-life at 1 µM: 1.5 h
[10]
  AUC(0-t) at 24 h: 970 ng·h/mL
[3]
  EC50: 31 nM
  EC90: 286 nM
[11]
  Cmax: 1530 ng/mL
[4]
  half-life at 1 µM: 1.93 h
[12]
  AUC(0-inf): 972 ng·h/mL
[13]
  half-life: 1.05 h
[14]
  AUC(0-t) at 24 h: 2120 ng·h/mL
[7]
  CLhep predicted at 1 µM: 36.8 mL/min/kg
[5]
  CC50: > 5000 nM
[15]
  bioavailability: 22.9%
[6]
  IC50: 25 nM

## CC1(C)[C@@H]2[C@@H](C(=O)N3C[C@]4(C[C@H]3C#N)C(=O)Nc3ccccc34)N(C(=O)[C@@H](NC(=O)C(F)(F)F)C3CC3)C[C@@H]21
[6]
  IC50: 886 nM

## CN(C(=O)[C@@H](NC(=O)C(F)(F)F)C1CC1)[C@@H](Cc1ccc(F)cc1)C(=O)N1C[C@]2(C[C@H]1C#N)C(=O)Nc1ccccc12
[8]
  half-life: 1.99 h
[1]
  CLhep predicted at 1 µM: 18.3 mL/min/kg
[9]
  AUC(0-inf): 3420 ng·h/mL
[2]
  half-life at 1 µM: 1.25 h
[10]
  AUC(0-t) at 24 h: 1110 ng·h/mL
[16]
  IC50: 20200 nM
[3]
  EC50: 5 nM
  EC90: 39 nM
[11]
  Cmax: 1360 ng/mL
[4]
  half-life at 1 µM: 0.207 h
[12]
  AUC(0-inf): 1110 ng·h/mL
[13]
  half-life: 2.58 h
[14]
  AUC(0-t) at 24 h: 3420 ng·h/mL
[17]
  IC50: 20700 nM
[7]
  CLhep predicted at 1 µM: 40.8 mL/min/kg
[5]
  CC50: > 5000 nM
[15]
  bioavailability: 16.2%
[6]
  IC50: 21 nM

## CN(C(=O)[C@@H](NC(=O)OC(C)(C)C)C1CC1)[C@H](CSCc1ccccc1)C(=O)N1C[C@]2(C[C@H]1C#N)C(=O)Nc1ccccc12
[6]
  IC50: 674 nM

## CC(C)(C)OC(=O)N[C@H](C(=O)N[C@@H](CSCc1ccccc1)C(=O)N1C[C@]2(C[C@H]1C#N)C(=O)Nc1ccccc12)C1CC1
[6]
  IC50: 47 nM

## CN(C(=O)[C@@H](NC(=O)C(C)(C)F)C1CC1)[C@@H](COCc1ccccc1)C(=O)N1C[C@]2(C[C@H]1C#N)C(=O)Nc1ccccc12
[2]
  half-life at 1 µM: 0.0783 h
[7]
  CLhep predicted at 1 µM: 83.6 mL/min/kg
[6]
  IC50: 53 nM

## CC(C)(F)C(=O)N[C@H](C(=O)N[C@@H](CSCc1ccccc1)C(=O)N1C[C@]2(C[C@H]1C#N)C(=O)Nc1ccccc12)C1CC1
[6]
  IC50: 97 nM

## CC(C)(F)C(=O)N[C@H](C(=O)N[C@@H](COCc1ccccc1)C(=O)N1C[C@]2(C[C@H]1C#N)C(=O)Nc1ccccc12)C1CC1
[6]
  IC50: 80 nM

## CN(C(=O)[C@@H](NC(=O)C(F)(F)F)C1CC1)[C@@H](CS(=O)(=O)Cc1ccccc1)C(=O)N1C[C@]2(C[C@H]1C#N)C(=O)Nc1ccccc12
[6]
  IC50: 94 nM

## N#C[C@@H]1C[C@@]2(CN1C(=O)[C@H](CSCc1ccccc1)NC(=O)[C@@H](NC(=O)C(F)(F)F)C1CC1)C(=O)Nc1ccccc12
[6]
  IC50: 298 nM

## CC(C)C[C@H](NC(=O)[C@H]1C[C@@H]1C(=O)O)C(=O)NCCCCNC(=N)N
[16]
  IC50: 56.2 nM
[17]
  IC50: 41.4 nM

## CN(C(=O)[C@@H](NC(=O)OC(C)(C)C)C1CC1)[C@@H](CSCc1ccccc1)C(=O)N1C[C@]2(C[C@H]1C#N)C(=O)Nc1ccccc12
[6]
  IC50: 38 nM

## CC(C)(C)[C@H](NC(=O)C(F)(F)F)C(=O)N1C[C@H]2[C@@H]([C@H]1C(=O)N1C[C@]3(CC1C#N)C(=O)Nc1ccccc13)C2(C)C (stereo not given in full)
[6]
  IC50: 248 nM
